Measured values as given in patent US12558432B2, “Biocompatible polymeric drug carriers for delivering active agents” (CIS BIOPHARMA AG, priority 2019, dated 2026).

System: cell culture
Test: cell culture experiments (toxic effects)
Assay type: cell-based
Details: at concentrations of up to 5 mM

Question: With `C=CC(=O)NCCCC[C@H](N)C(=O)O` [acryloyl-lysine, (S)-6-acrylamido-2-aminohexanoic acid] as the compound, how does the “toxic effects in cell culture experiments” value read?
Answer: do not exhibit any toxic effects
